Experimental data taken from patent US8952024B2, “Herbicidal pyrimidone derivatives” (E I du Pont de Nemours and Company, priority 2009, dated 2015).

These molecules were tested on giant foxtail (Setaria faberii) (assay: Test B pre-/postemergence plant response). Details: Postemergence, 250 g ai/ha; scale 0 to 100 (0 no effect, 100 complete control); 13 to 15 days.
Type: in vivo
Procedure, shortened: (§1)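 Greenhouse herbicide screen. Pre- and postemergence (1- to 4-leaf) spray of compound in solvent/surfactant mixture; loam–sand soil for pre, peat/vermiculite medium for post. Visual control rating 0–100 at 13 to 15 days after treatment.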

Structure (SMILES)	Plant response rating, Foxtail, Giant
O=C(C1=C(O)C2CCC(C2)C1=O)c1cnc(-c2ccsc2)n(CC2CCCO2)c1=O (stereo not shown) [Compound 229]	95

These molecules were tested on green foxtail (Setaria viridis) (assay: Test B pre-/postemergence plant response). Details: Postemergence, 31 g ai/ha; 0 to 100 scale (0 no effect, 100 complete control).
Type: in vivo
Procedure, shortened: as §1

Structure (SMILES)	Plant response rating, Foxtail, Green
O=C(C1=C(O)C2CCC(C2)C1=O)c1cnc(-c2ccsc2)n(CC2CCCO2)c1=O (stereo not shown) [Compound 229]	40

Same assay, conditions: Postemergence, 62 g ai/ha; scale 0 to 100 (0 no effect, 100 complete control)

Structure (SMILES)	Plant response rating, Foxtail, Green
O=C(C1=C(O)C2CCC(C2)C1=O)c1cnc(-c2ccsc2)n(CC2CCCO2)c1=O (stereo not shown) [Compound 229]	80

Same assay, conditions: Postemergence, 125 g ai/ha; scale 0 to 100 (0 no effect, 100 complete control)

Structure (SMILES)	Plant response rating, Foxtail, Green
O=C(C1=C(O)C2CCC(C2)C1=O)c1cnc(-c2ccsc2)n(CC2CCCO2)c1=O (stereo not shown) [Compound 229]	80

Same assay, conditions: Postemergence, 250 g ai/ha; scale 0 to 100 (0 no effect, 100 complete control); 13 to 15 days

Structure (SMILES)	Plant response rating, Foxtail, Green
O=C(C1=C(O)C2CCC(C2)C1=O)c1cnc(-c2ccsc2)n(CC2CCCO2)c1=O (stereo not shown) [Compound 229]	95

These molecules were tested on lambsquarters (Chenopodium album) (assay: Test B pre-/postemergence plant response). Details: Postemergence, 31 g ai/ha; 0 to 100 scale (0 no effect, 100 complete control).
Type: in vivo
Procedure, shortened: as §1

Structure (SMILES)	Plant response rating, Lambsquarters
O=C(C1=C(O)C2CCC(C2)C1=O)c1cnc(-c2ccsc2)n(CC2CCCO2)c1=O (stereo not shown) [Compound 229]	85

Same assay, conditions: Postemergence, 62 g ai/ha; scale 0 to 100 (0 no effect, 100 complete control)

Structure (SMILES)	Plant response rating, Lambsquarters
O=C(C1=C(O)C2CCC(C2)C1=O)c1cnc(-c2ccsc2)n(CC2CCCO2)c1=O (stereo not shown) [Compound 229]	95

Same assay, conditions: Postemergence, 125 g ai/ha; scale 0 to 100 (0 no effect, 100 complete control)

Structure (SMILES)	Plant response rating, Lambsquarters
O=C(C1=C(O)C2CCC(C2)C1=O)c1cnc(-c2ccsc2)n(CC2CCCO2)c1=O (stereo not shown) [Compound 229]	95

Same assay, conditions: Postemergence, 250 g ai/ha; scale 0 to 100 (0 no effect, 100 complete control); 13 to 15 days

Structure (SMILES)	Plant response rating, Lambsquarters
O=C(C1=C(O)C2CCC(C2)C1=O)c1cnc(-c2ccsc2)n(CC2CCCO2)c1=O (stereo not shown) [Compound 229]	98

Each molecule was assayed on large crabgrass (Digitaria sanguinalis) (assay: Test B pre-/postemergence plant response). Details: Postemergence, 31 g ai/ha; 0 to 100 scale (0 no effect, 100 complete control).
Type: in vivo
Procedure, shortened: as §1

Structure (SMILES)	Plant response rating, Crabgrass, Large
O=C(C1=C(O)C2CCC(C2)C1=O)c1cnc(-c2ccsc2)n(CC2CCCO2)c1=O (stereo not shown) [Compound 229]	80

Same assay, conditions: Postemergence, 62 g ai/ha; scale 0 to 100 (0 no effect, 100 complete control)

Structure (SMILES)	Plant response rating, Crabgrass, Large
O=C(C1=C(O)C2CCC(C2)C1=O)c1cnc(-c2ccsc2)n(CC2CCCO2)c1=O (stereo not shown) [Compound 229]	90

Same assay, conditions: Postemergence, 125 g ai/ha; scale 0 to 100 (0 no effect, 100 complete control)

Structure (SMILES)	Plant response rating, Crabgrass, Large
O=C(C1=C(O)C2CCC(C2)C1=O)c1cnc(-c2ccsc2)n(CC2CCCO2)c1=O (stereo not shown) [Compound 229]	90

Same assay, conditions: Postemergence, 250 g ai/ha; scale 0 to 100 (0 no effect, 100 complete control); 13 to 15 days

Structure (SMILES)	Plant response rating, Crabgrass, Large
O=C(C1=C(O)C2CCC(C2)C1=O)c1cnc(-c2ccsc2)n(CC2CCCO2)c1=O (stereo not shown) [Compound 229]	90

The molecules below were run on morningglory (Ipomoea coccinea) (assay: Test B pre-/postemergence plant response). Details: Postemergence, 31 g ai/ha; 0 to 100 scale (0 no effect, 100 complete control).
Type: in vivo
Procedure, shortened: as §1

Structure (SMILES)	Plant response rating, Morningglory
O=C(C1=C(O)C2CCC(C2)C1=O)c1cnc(-c2ccsc2)n(CC2CCCO2)c1=O (stereo not shown) [Compound 229]	98

Same assay, conditions: Postemergence, 62 g ai/ha; scale 0 to 100 (0 no effect, 100 complete control)

Structure (SMILES)	Plant response rating, Morningglory
O=C(C1=C(O)C2CCC(C2)C1=O)c1cnc(-c2ccsc2)n(CC2CCCO2)c1=O (stereo not shown) [Compound 229]	100

Same assay, conditions: Postemergence, 125 g ai/ha; scale 0 to 100 (0 no effect, 100 complete control)

Structure (SMILES)	Plant response rating, Morningglory
O=C(C1=C(O)C2CCC(C2)C1=O)c1cnc(-c2ccsc2)n(CC2CCCO2)c1=O (stereo not shown) [Compound 229]	100

Same assay, conditions: Postemergence, 250 g ai/ha; scale 0 to 100 (0 no effect, 100 complete control); 13 to 15 days

Structure (SMILES)	Plant response rating, Morningglory
O=C(C1=C(O)C2CCC(C2)C1=O)c1cnc(-c2ccsc2)n(CC2CCCO2)c1=O (stereo not shown) [Compound 229]	100

What follows are molecules tested on woolly cupgrass (Eriochloa villosa) (assay: Test B pre-/postemergence plant response). Details: Postemergence, 31 g ai/ha; 0 to 100 scale (0 no effect, 100 complete control).
Type: in vivo
Procedure, shortened: as §1

Structure (SMILES)	Plant response rating, Cupgrass, Woolly
O=C(C1=C(O)C2CCC(C2)C1=O)c1cnc(-c2ccsc2)n(CC2CCCO2)c1=O (stereo not shown) [Compound 229]	70

Same assay, conditions: Postemergence, 62 g ai/ha; scale 0 to 100 (0 no effect, 100 complete control)

Structure (SMILES)	Plant response rating, Cupgrass, Woolly
O=C(C1=C(O)C2CCC(C2)C1=O)c1cnc(-c2ccsc2)n(CC2CCCO2)c1=O (stereo not shown) [Compound 229]	75

Same assay, conditions: Postemergence, 125 g ai/ha; scale 0 to 100 (0 no effect, 100 complete control)

Structure (SMILES)	Plant response rating, Cupgrass, Woolly
O=C(C1=C(O)C2CCC(C2)C1=O)c1cnc(-c2ccsc2)n(CC2CCCO2)c1=O (stereo not shown) [Compound 229]	80

Same assay, conditions: Postemergence, 250 g ai/ha; scale 0 to 100 (0 no effect, 100 complete control); 13 to 15 days

Structure (SMILES)	Plant response rating, Cupgrass, Woolly
O=C(C1=C(O)C2CCC(C2)C1=O)c1cnc(-c2ccsc2)n(CC2CCCO2)c1=O (stereo not shown) [Compound 229]	90

Each molecule was assayed on yellow nutsedge (Cyperus esculentus) (assay: Test B pre-/postemergence plant response). Details: Postemergence, 31 g ai/ha; 0 to 100 scale (0 no effect, 100 complete control).
Type: in vivo
Procedure, shortened: as §1

Structure (SMILES)	Plant response rating, Nutsedge, Yellow
O=C(C1=C(O)C2CCC(C2)C1=O)c1cnc(-c2ccsc2)n(CC2CCCO2)c1=O (stereo not shown) [Compound 229]	0

Same assay, conditions: Postemergence, 62 g ai/ha; scale 0 to 100 (0 no effect, 100 complete control)

Structure (SMILES)	Plant response rating, Nutsedge, Yellow
O=C(C1=C(O)C2CCC(C2)C1=O)c1cnc(-c2ccsc2)n(CC2CCCO2)c1=O (stereo not shown) [Compound 229]	20

Same assay, conditions: Postemergence, 125 g ai/ha; scale 0 to 100 (0 no effect, 100 complete control)

Structure (SMILES)	Plant response rating, Nutsedge, Yellow
O=C(C1=C(O)C2CCC(C2)C1=O)c1cnc(-c2ccsc2)n(CC2CCCO2)c1=O (stereo not shown) [Compound 229]	40

Same assay, conditions: Postemergence, 250 g ai/ha; scale 0 to 100 (0 no effect, 100 complete control); 13 to 15 days

Structure (SMILES)	Plant response rating, Nutsedge, Yellow
O=C(C1=C(O)C2CCC(C2)C1=O)c1cnc(-c2ccsc2)n(CC2CCCO2)c1=O (stereo not shown) [Compound 229]	55
